# From the CheMixHub viscosity set
# Where “and” joins values, the source holds several entries; their conditions need not be identical. Equal values may be shown once. ± gives the uncertainty stated by the source.
compound,measurement,setting,value
CCn1cc[n+](C)c1.O=S(=O)([N-]S(=O)(=O)C(F)(F)F)C(F)(F)F,viscosity,"293.15 K, 100 kPa",41.6 ± 4.2 mPa·s and 39.2 ± 3.9 mPa·s
same,viscosity,"297.55 K, 101 kPa",36.3 ± 1 mPa·s
same,viscosity,"298 K, 100 kPa",29.67 ± 2.3 mPa·s
same,viscosity,"298.15 K, 100 kPa",33.9 ± 3.4 mPa·s and 32.55 ± 0.48 mPa·s
same,viscosity,"298.15 K, 101 kPa",30.72 ± 1.3 mPa·s and 32.3 ± 0.7 mPa·s
same,viscosity,"298.15 K, 101.3 kPa",32.42 ± 0.68 mPa·s
same,viscosity,"303 K, 100 kPa",24.82 ± 1.8 mPa·s
same,viscosity,"303.15 K, 100 kPa",27.68 ± 0.52 mPa·s and 27.4 ± 2.7 mPa·s
same,viscosity,"303.15 K, 101.3 kPa",28.6 ± 0.9 mPa·s
same,viscosity,"308 K, 100 kPa",20.99 ± 1.4 mPa·s
same,viscosity,"308.15 K, 101.3 kPa",23.19 ± 0.48 mPa·s
same,viscosity,"313 K, 100 kPa",17.97 ± 1.1 mPa·s
same,viscosity,"313.15 K, 100 kPa",20.16 ± 0.47 mPa·s and 19.1 ± 1.9 mPa·s and 20.1 ± 2 mPa·s
same,viscosity,"313.15 K, 101 kPa",19.9 ± 2.1 mPa·s and 19.26 ± 0.79 mPa·s
same,viscosity,"313.15 K, 101.3 kPa",19.94 ± 0.42 mPa·s
same,viscosity,"318 K, 100 kPa",15.57 ± 0.97 mPa·s
same,viscosity,"318.15 K, 101.3 kPa",17.37 ± 0.36 mPa·s
same,viscosity,"323 K, 100 kPa",13.28 ± 0.78 mPa·s
same,viscosity,"323.15 K, 100 kPa",15.34 ± 0.44 mPa·s and 14.4 ± 1.4 mPa·s and 15.3 ± 1.5 mPa·s
same,viscosity,"323.15 K, 101.3 kPa",15.34 ± 0.32 mPa·s
CC12CC3CC(C1)CC(C)(C3)C2,viscosity,"293.15 K, 100 kPa",3.779 ± 0.017 mPa·s and 3.778 ± 0.15 mPa·s
same,viscosity,"298.15 K, 100 kPa",3.371 ± 0.016 mPa·s and 3.365 ± 0.14 mPa·s
same,viscosity,"303.15 K, 100 kPa",3.027 ± 0.015 mPa·s and 3.017 ± 0.12 mPa·s
same,viscosity,"308.15 K, 100 kPa",2.747 ± 0.11 mPa·s
same,viscosity,"313.15 K, 100 kPa",2.475 ± 0.014 mPa·s
same,viscosity,"318.15 K, 100 kPa",2.262 ± 0.092 mPa·s
same,viscosity,"323.15 K, 100 kPa",2.05 ± 0.012 mPa·s
CCCCCCCCO,viscosity,"293.15 K, 100 kPa",9.045 ± 0.12 mPa·s and 9.2 ± 1.7 mPa·s and 8.98 ± 0.37 mPa·s
same,viscosity,"293.15 K, 101 kPa",8.309 ± 0.045 mPa·s and 9.185 ± 0.12 mPa·s
same,viscosity,"293.15 K, 101.3 kPa",9.273 ± 0.19 mPa·s and 9.183 ± 0.23 mPa·s
same,viscosity,"298 K, 100 kPa",7.614 ± 0.083 mPa·s
same,viscosity,"298.15 K, 100 kPa",7.546 ± 0.098 mPa·s and 7.67 ± 1.4 mPa·s and 7.56 ± 0.31 mPa·s
same,viscosity,"298.15 K, 101 kPa",7.33 ± 0.19 mPa·s and 7.3 ± 0.063 mPa·s
same,viscosity,"298.15 K, 101.3 kPa",7.598 ± 0.16 mPa·s and 7.84 ± 0.21 mPa·s
same,viscosity,"303.15 K, 100 kPa",6.337 ± 0.082 mPa·s and 6.35 ± 0.26 mPa·s
same,viscosity,"303.15 K, 101.3 kPa",6.102 ± 0.065 mPa·s and 6.42 ± 0.18 mPa·s
same,viscosity,"308 K, 101 kPa",5.228 ± 0.038 mPa·s
same,viscosity,"308.15 K, 101.3 kPa",5.403 ± 0.12 mPa·s
same,viscosity,"308.15 K, 101.33 kPa",5.352 ± 0.23 mPa·s
same,viscosity,"313 K, 101 kPa",4.464 ± 0.12 mPa·s
same,viscosity,"313.15 K, 100 kPa",4.564 ± 0.059 mPa·s and 4.61 ± 0.83 mPa·s and 4.585 ± 0.12 mPa·s
same,viscosity,"313.15 K, 101 kPa",4.199 ± 0.84 mPa·s and 4.691 ± 0.11 mPa·s and 4.58 ± 0.18 mPa·s
same,viscosity,"313.15 K, 101.3 kPa",4.413 ± 0.049 mPa·s and 4.661 ± 0.14 mPa·s
same,viscosity,"318.15 K, 101.3 kPa",4.051 ± 0.093 mPa·s and 3.701 ± 0.11 mPa·s
same,viscosity,"323.15 K, 100 kPa",3.365 ± 0.043 mPa·s and 3.38 ± 0.14 mPa·s
same,viscosity,"323.15 K, 101 kPa",3.464 ± 0.1 mPa·s and 3.369 ± 0.14 mPa·s
same,viscosity,"323.15 K, 101.3 kPa",2.84 ± 0.09 mPa·s
same,viscosity,"323.15 K, 101.33 kPa",3.361 ± 0.078 mPa·s and 3.361 ± 0.03 mPa·s
CC(=O)c1ccc(Cl)cc1,viscosity,"303.15 K, 100 kPa",2.353 ± 0.028 mPa·s
same,viscosity,"303.15 K, 101 kPa",2.353 ± 0.028 mPa·s
CC1CCCC(O)C1 (centres undefined),viscosity,"293.15 K, 101 kPa",22.8 ± 0.7 mPa·s
O=S(=O)([N-]S(=O)(=O)C(F)(F)F)C(F)(F)F.OCCNCCO.[Li+],viscosity,"313.15 K, 101 kPa",1775 ± 430 mPa·s
same,viscosity,"318.15 K, 101 kPa",1235 ± 270 mPa·s
same,viscosity,"323.15 K, 101 kPa",895 ± 170 mPa·s
CC(C)(C)N,viscosity,"298 K, 101 kPa",0.434 ± 0.011 mPa·s
same,viscosity,"298.15 K, 101 kPa",0.4394 ± 0.0041 mPa·s and 0.439 ± 0.004 mPa·s
same,viscosity,"298.15 K, 101.33 kPa",0.4394 ± 0.0055 mPa·s
same,viscosity,"303 K, 101 kPa",0.403 ± 0.011 mPa·s
same,viscosity,"303.15 K, 101 kPa",0.4363 ± 0.0039 mPa·s and 0.4443 ± 0.0039 mPa·s
same,viscosity,"303.15 K, 101.33 kPa",0.4088 ± 0.0052 mPa·s
same,viscosity,"308 K, 101 kPa",0.375 ± 0.011 mPa·s
same,viscosity,"308.15 K, 101 kPa",0.4126 ± 0.043 mPa·s and 0.4126 ± 0.0057 mPa·s
same,viscosity,"308.15 K, 101.33 kPa",0.3803 ± 0.0049 mPa·s
same,viscosity,"313.15 K, 101.33 kPa",0.3558 ± 0.0046 mPa·s
